According to ChEMBL document CHEMBL1201862, “PubChem BioAssay data set” (2004):
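Cultured in 96-well plates, cells were exposed to test compound for 48 hours across five concentrations. GI50 is the concentration that inhibits growth by half.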 Active and inactive are the calls of the source. Rule as the data show it: active = GI50 up to about 1.1 µM and inactive = higher.

Assays:
Assay in all cases: DTP human tumour cell line panel, 48 h
[1] = tested on: 786-0
[2] = tested on: SK-MEL-28
[3] = tested on: SW-620
[4] = tested on: NCI-H522
[5] = tested on: HOP-92
[6] = tested on: U-251
[7] = tested on: MDA-N
[8] = tested on: NCI-H226
[9] = tested on: SN12C
[10] = tested on: HT-29
[11] = tested on: SK-MEL-5
[12] = tested on: A549
[13] = tested on: IGROV-1
[14] = tested on: A498
[15] = tested on: MCF7
[16] = tested on: SF-295
[17] = tested on: OVCAR-5
[18] = tested on: NCI-H23
[19] = tested on: Malme-3M

With `O=C1CCCCC[C@]12SC[C@H]1CON=C12` the GI50 [1] was 34 µM (inactive), the GI50 [2] was 27.8 µM (inactive) and the GI50 [3] was 50.8 µM (inactive). For the same compound, the GI50 [4] was 22.6 µM (inactive), the GI50 [5] was 12.9 µM (inactive) and the GI50 [6] was 12.3 µM (inactive). For the same compound, the GI50 [7] was 12.5 µM (inactive), the GI50 [8] was > 100 µM (inactive) and the GI50 [9] was 23.1 µM (inactive). For the same compound, the GI50 [10] was 38.3 µM (inactive), the GI50 [11] was > 100 µM (inactive) and the GI50 [12] was 37.1 µM (inactive). The GI50 [13] was 47.5 µM (inactive), the GI50 [14] was 7.16 µM (inactive) and the GI50 [15] was 21.9 µM (inactive). For the same compound, the GI50 [16] was > 100 µM (inactive), the GI50 [17] was > 100 µM (inactive) and the GI50 [18] was 94.8 µM (inactive). The GI50 [19] was 18.8 µM (inactive).
With `Cc1nc(-c2cccnc2)sc1C(=O)CC(=O)C(=O)Nc1cccc(NC(=O)C(=O)CC(=O)c2sc(-c3cccnc3)nc2C)n1` the GI50 [1] was > 100 µM (inactive), the GI50 [2] was > 100 µM (inactive) and the GI50 [3] was > 100 µM (inactive). For the same compound, the GI50 [4] was > 100 µM (inactive), the GI50 [5] was > 100 µM (inactive) and the GI50 [6] was > 100 µM (inactive). For the same compound, the GI50 [7] was > 100 µM (inactive), the GI50 [8] was > 100 µM (inactive) and the GI50 [9] was > 100 µM (inactive). For the same compound, the GI50 [10] was > 100 µM (inactive), the GI50 [11] was > 100 µM (inactive) and the GI50 [12] was > 100 µM (inactive). The GI50 [13] was > 100 µM (inactive), the GI50 [14] was > 100 µM (inactive) and the GI50 [15] was > 100 µM (inactive). The GI50 [16] was > 100 µM (inactive), the GI50 [17] was > 100 µM (inactive) and the GI50 [18] was > 100 µM (inactive). The GI50 [19] was > 100 µM (inactive).
For `CCOC(=O)CC1(O)CCCCC1(Sc1ccc(C)cc1)Sc1ccc(C)cc1` (stereo not given), the GI50 [1] was 48.2 µM (inactive), the GI50 [2] was 39.2 µM (inactive) and the GI50 [3] was 62.4 µM (inactive). For the same compound, the GI50 [4] was 18.7 µM (inactive), the GI50 [5] was 29.6 µM (inactive) and the GI50 [6] was 33.7 µM (inactive). For the same compound, the GI50 [7] was 35.5 µM (inactive), the GI50 [8] was 34.4 µM (inactive) and the GI50 [9] was 39.4 µM (inactive). The GI50 [10] was 32.2 µM (inactive), the GI50 [11] was 29.9 µM (inactive) and the GI50 [12] was 33.8 µM (inactive). For the same compound, the GI50 [14] was > 100 µM (inactive), the GI50 [15] was 31.6 µM (inactive) and the GI50 [16] was 41 µM (inactive). For the same compound, the GI50 [17] was 44.2 µM (inactive), the GI50 [18] was 49.4 µM (inactive) and the GI50 [19] was 30.5 µM (inactive).
With `Cc1c(N=C(S)Nc2ccc(Cl)cc2)c(=O)n(-c2ccccc2)n1C` the GI50 [1] was > 100 µM (inactive), the GI50 [2] was > 100 µM (inactive) and the GI50 [3] was > 100 µM (inactive). For the same compound, the GI50 [4] was > 100 µM (inactive), the GI50 [5] was > 100 µM (inactive) and the GI50 [6] was > 100 µM (inactive). For the same compound, the GI50 [7] was > 100 µM (inactive), the GI50 [8] was > 100 µM (inactive) and the GI50 [10] was > 100 µM (inactive). For the same compound, the GI50 [11] was > 100 µM (inactive), the GI50 [12] was > 100 µM (inactive) and the GI50 [13] was > 100 µM (inactive). The GI50 [14] was > 100 µM (inactive), the GI50 [15] was > 100 µM (inactive) and the GI50 [16] was > 100 µM (inactive). The GI50 [17] was > 100 µM (inactive), the GI50 [18] was > 100 µM (inactive) and the GI50 [19] was > 100 µM (inactive).
With `O=c1cc(N2CCOCC2)oc2c(-c3ccccc3)cccc12` [LY-294002] the GI50 [1] was 9.68 µM (inactive), the GI50 [2] was 16.9 µM (inactive) and the GI50 [3] was 21.7 µM (inactive). For the same compound, the GI50 [4] was 2.21 µM (inactive), the GI50 [5] was 9.04 µM (inactive) and the GI50 [6] was 19.5 µM (inactive). The GI50 [7] was 11.8 µM (inactive), the GI50 [8] was 3.93 µM (inactive) and the GI50 [9] was 5.36 µM (inactive). The GI50 [10] was 6.25 µM (inactive), the GI50 [12] was 4.79 µM (inactive) and the GI50 [13] was 2.49 µM (inactive). The GI50 [14] was 2.48 µM (inactive), the GI50 [15] was 3.09 µM (inactive) and the GI50 [16] was 6.53 µM (inactive). The GI50 [17] was 12.1 µM (inactive), the GI50 [18] was 3.76 µM (inactive) and the GI50 [19] was 0.286 µM (active).
With `COC(=O)CNC(=O)CCC(C)[C@H]1CCC2C3C(C[C@H](OC(C)=O)[C@@]21C)[C@@]1(C)CCC2(C[C@H]1C[C@H]3OC(C)=O)OOC1(CCCCC1)OO2` (stereo not given in full) the GI50 [1] was 2.04 µM (inactive), the GI50 [2] was 9.29 µM (inactive) and the GI50 [3] was 2.24 µM (inactive). For the same compound, the GI50 [4] was 1.48 µM (inactive), the GI50 [5] was 1.08 µM (active) and the GI50 [6] was 1.76 µM (inactive). For the same compound, the GI50 [7] was 1.74 µM (inactive), the GI50 [8] was 2.1 µM (inactive) and the GI50 [9] was 1.59 µM (inactive). For the same compound, the GI50 [10] was 2.69 µM (inactive), the GI50 [11] was 2.63 µM (inactive) and the GI50 [12] was 1.72 µM (inactive). The GI50 [13] was 1.4 µM (inactive), the GI50 [14] was 17.2 µM (inactive) and the GI50 [15] was 3.26 µM (inactive). For the same compound, the GI50 [16] was 6.08 µM (inactive), the GI50 [17] was 2.6 µM (inactive) and the GI50 [18] was 1.91 µM (inactive). For the same compound, the GI50 [19] was 3.37 µM (inactive).
With `Cc1cc(O)c2c(c1)C(=O)C(c1c(C)cc3c(c1O)C(=O)C1OC1C3=O)=CC2=O` (stereo not given) the GI50 [1] was 1.64 µM (inactive), the GI50 [2] was 1.94 µM (inactive) and the GI50 [3] was 1.42 µM (inactive). For the same compound, the GI50 [4] was 0.469 µM (active), the GI50 [5] was 0.839 µM (active) and the GI50 [6] was 6.9 µM (inactive). For the same compound, the GI50 [7] was 1.27 µM (inactive), the GI50 [8] was 16.1 µM (inactive) and the GI50 [9] was 3.44 µM (inactive). For the same compound, the GI50 [10] was 3.36 µM (inactive), the GI50 [11] was 6.34 µM (inactive) and the GI50 [12] was 17.7 µM (inactive). The GI50 [13] was 9.1 µM (inactive), the GI50 [14] was 6.4 µM (inactive) and the GI50 [15] was 1.84 µM (inactive). For the same compound, the GI50 [16] was 16.5 µM (inactive), the GI50 [17] was 5.27 µM (inactive) and the GI50 [18] was 8.97 µM (inactive). The GI50 [19] was 1.73 µM (inactive).
